# Like-named read-outs stand apart in the source and are kept apart here.
# What was measured:
# [1] = tested on: subgenomic Con1 (GT1b) replicon in Huh-7 cells; format: cell-based, hepatitis C virus; settings: for passage at which resistant variants emerged (CypI comparison): Fig 3C
# Experimental: Huh-7 cell expressing subgenomic Con1 (GT1b) replicon were seeded in a 10 cm dish at a density of 3 × 10^5 cells per culture flask in complete DMEM (with G418) with STG-175 or selected drugs. Cells were grown until they reached 90% confluence, trypsinized and re-seeded at the same cell concentration in a new 10-cm dish with the same drug concentration. Cells were passaged 22 times in the presence of drugs. At each passage, sample of cells were collected, RNA extracted according to the manufacturer's instructions and analyzed by RT-PCR for HCV RNA levels.
# Fig 3 Replicon clearance, replication rebound and resistance analyses. […] Then drugs were removed to allow viral replication rebound to occur. At each passage, samples of cells were collected, RNA extracted and analyzed by RT-PCR for HCV RNA levels. B. Emergence of resistance: Con1 replicon Huh-7 cells were passaged 22 times in the absence or presence of STG-175 or selected DAAs. At each passage, sample of cells were collected, RNA extracted and analyzed by RT-PCR for HCV RNA levels. C. […] Data are expressed as number of HCV RNA copies per cell. […] Data are expressed as mean of relative light units and calculated EC50s are presented. […] E. Degree of resistance of D320E and Y321N Con1 variants: Left panel. Wild-type (WT), D320E and D320/Y321N NS5A Con1 RNA were electroporated into Huh7.5.1 cells and replication monitored over 8 days by quantifying the levels of intracellular HCV RNA. Right panel. Same as just above except that increasing concentrations of STG-175 were added at the time of the electroporation. […] STG-175 is taken as the substance from the printed x-axis title 'STG-175 in Log nM'.
# We then examined the development of resistance to STG-175. GT1b Con1 sub-genomic replicon cells were grown in the presence of STG-175 (0.25 and 1 μM), telaprevir (2.5 and 10 μM), boceprevir (2.5 and 10 μM), daclatasvir 100 pM and 1 nM) or a combination of STG-175 (0.25 μM) with either telaprevir (2.5 μM), boceprevir (2.5 μM) or daclatasvir (100 pM) for 22 successive passages. At each passage, fresh drug was added and a sample of cells was taken to quantify HCV RNA levels by RT-qPCR.
# [2] = tested on: HCV in mixed PBMCs, NTCP-Huh7 and Huh7.5.1 cells; assay: Dual/triple co-infection in cell co-cultures, HCV readout; format: cell-based, hepatitis C virus
# [3] = tested on: HCV GT4a subgenomic replicon ED43/SG-Feo; assay: Luciferase reporter replicon antiviral assay, GT4a; format: cell-based; settings: Hepatitis C virus
# Experimental: The anti-HCV activity of STG-175 was conducted using a panel of luciferase reporter replicon cell lines including GT1a, GT1b, GT2a, GT3a and GT4a as we described previously. The GT1a subgenomic renilla luciferase reporter replicon H77 RLucP (7) was supplied by Dr. Delaney. The GT1b subgenomic firefly luciferase reporter replicon pFK-I389/NS3-3’ [29] was supplied by Dr. Bartenschlager. The GT1B subgenomic NS3, NS5A and NS5B mutants were created via homologous recombination using the In-Fusion HD Cloning kit (Clontech) as we described previously. The GT2a genomic luciferase reporter replicon Luc-Neo-JFH-1 was generated as previously. The plasmid pFK-Luc-JFH1 was supplied from Drs. […] The CellTiter-Fluor™ Cell Viability Assay is a non-lytic fluorescence assay, which measures the number of live cells. […] Luciferase activity was determined using the Luciferase Assay System (Promega) in a Berthold luminometer. […] Viable cells continuously convert resazurin to resorufin, increasing the overall fluorescence and color of the media surrounding cells.
# Fig 2 Anti-HCV activities of STG-175 among GTs. […] Luciferase activity was determined using the Luciferase Assay System in a Berthold luminometer. […] Data are expressed as mean of relative light units and calculated EC50s are presented. […]
# [4] = tested on: HIV-1 in mixed PBMCs, NTCP-Huh7 and Huh7.5.1 cells; assay: Dual/triple co-infection in cell co-cultures, HIV-1 readout; format: cell-based
# [5] = STG-175 added together with virus
# [6] = added 3 days post-infection and then every 3 days
smiles,measurement,setting,value
CC=CCC(C)C(O)C1C(=O)NC(CC)C(=O)N(C)C(CSCCCCO)C(=O)N(C)C(CC(C)(C)O)C(=O)NC(C(C)C)C(=O)N(C)C(CC(C)C)C(=O)NC(C)C(=O)NC(C)C(=O)N(C)C(CC(C)C)C(=O)N(C)C(CC(C)C)C(=O)N(C)C(C(C)C)C(=O)N1C (stereo not shown) [STG-175],cell culture passages required to detect emergence of resistant replicon colonies,[1],> 16 passages
same,passage at which resistant variants emerged (CypI comparison),[1]; 0.25 μM of drug selection,18 passage
same,passage at which resistance began,"[1]; 1 μM drug pressure, first account (Fig 3B)",19 passage
same,passage at which resistant variants emerged (CypI comparison),[1]; 1 μM of drug selection,21 passage
same,HCV infection in co-infection,[2]; [5],totally blocked
same,pre-established HCV infection in co-infection,[2]; [6],totally eradicated
same,EC50,"[3]; 72 h, read-out: EC50 GT4a",15.2 nM
same,EC50,[3]; read-out: EC50 GT4a (Fig 2D),15.2 nM
same,HIV-1 infection in co-infection,[4]; [5],totally blocked
same,established HIV-1 infection in co-infection,[4]; [6],almost totally aborted
